Experimental findings from patent US20250206757A1 (GASHERBRUM BIO, INC., priority 2022, published 2025) are described below.

Sequence of GLP-1 Receptor (P43220 24-463): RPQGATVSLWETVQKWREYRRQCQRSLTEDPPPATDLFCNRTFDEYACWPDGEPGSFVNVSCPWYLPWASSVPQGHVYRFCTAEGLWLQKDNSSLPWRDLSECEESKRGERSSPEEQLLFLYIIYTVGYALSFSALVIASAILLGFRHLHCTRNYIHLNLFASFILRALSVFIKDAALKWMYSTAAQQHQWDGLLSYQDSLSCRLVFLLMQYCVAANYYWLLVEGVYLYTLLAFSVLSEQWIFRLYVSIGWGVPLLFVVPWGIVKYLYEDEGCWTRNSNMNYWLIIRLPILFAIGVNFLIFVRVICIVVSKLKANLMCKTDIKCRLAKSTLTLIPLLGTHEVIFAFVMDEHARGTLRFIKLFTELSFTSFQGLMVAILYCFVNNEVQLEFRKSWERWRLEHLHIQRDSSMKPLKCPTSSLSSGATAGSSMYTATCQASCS

The target of the assay is GLP-1 Receptor (Homo sapiens, UniProt P43220). Briefly: GLP-1R agonist cAMP stimulation assay (HEK293/GLP1R/CRE-LUC cells, HTRF cAMP dynamic 2 kit). It is filed as cell-based. Conditions: HEK293/CRE-Luc cell line stably expressing the GLP-1 Receptor; 30 min incubation at 37° C. Here is the method:
Activation of GLP-1 receptor is known to stimulate cyclic AMP (cAMP) production in cells which indicates primary coupling to the Gas subunit of the G protein heterotrimeric complex.
To optimize functional activity directed toward Gas coupling, a HEK293/CRE-Luc cell line developed by HDB stably expressing the GLP-1 Receptor was used. 200× concentration of compound working solutions were prepared (Agilent Technologies Bravo) with 1/2 log serial dilution in 384-well Echo LDV plate (Labcyte, Cat #LP-0200). 50 nL/well 200× concentration of compound working solutions were moved to 384-well white low volume plate (Greiner, Cat #784075) using Labcyte ECHO550. 1×10^5 cells/mL HEK293/GLP1R/CRE-LUC (HD Biosciences) cell suspensions prepared with assay buffer [DPBS containing 0.5 mM IBMX (Sigma, Cat #15879) and 0.10% BSA (GENVIEW, Cat #FA016-100g)], 10 μL cell suspensions were added to each well of previous generated assay plate which already contains 50 nL compound at 200× concentration using ThermoFisher Multidrop Combi (1000 cells/well). Seal the plate and incubate at 37° C. with 5% CO2 for 30 min.
After incubation the cAMP assay signal was generated using cAMP dynamic 2 Kit (Cisbio). 5 μL cAMP-d2 working solution was added to each well, followed with 5 μL Anti-cAMP antibody-cryptate working solution added to each well using ThermoFisher Multidrop Combi. Incubate at room temperature for 1 hour protected from light. Read the fluorescence at 665 and 615 nm with Reader PerkinElmer EnVision.
Take `Cc1nnc(-c2ccc3c(nc(CN4CCc5cc(C(F)(F)F)c(OCc6ccc(Cl)cc6)nc5C4)n3C[C@@H]3CCO3)c2F)[nH]1` [Compound 68, 2-[(4-chlorophenyl)methoxy]-7-{[4-fluoro-5-(5-methyl-4H-1,2,4-triazol-3-yl)-1-{[(2S)-oxetan-2-yl]methyl}-1H-1,3-benzodiazol-2-yl]methyl}-3-(trifluoromethyl)-5,6,7,8-tetrahydro-1,7-naphthyridine]: the EC50 (usually the concentration at which the effect is half-maximal) is under 1 nM.

Take `Fc1cc(Cl)ccc1COc1nc2c(cc1C(F)(F)F)CCN(Cc1nc3cc(-c4nnn[nH]4)ncc3n1C[C@@H]1CCO1)C2` [Compound 14, 2-[(4-chloro-2-fluorophenyl)methoxy]-7-[(3-{[(2S)-oxetan-2-yl]methyl}-6-(1H-1,2,3,4-tetrazol-5-yl)-3H-imidazo[4,5-c]pyridin-2-yl)methyl]-3-(trifluoromethyl)-5,6,7,8-tetrahydro-1,7-naphthyridine]: the half-maximal effective concentration (EC50) is under 1 nM.

In the case of `COC(C)Cn1c(CN2CCc3cc(C(F)(F)F)c(OCc4ccc(Cl)cc4F)nc3C2)nc2cc(-c3nnc(C(F)(F)F)[nH]3)ncc21` (stereo in doubt) [Compound 81, 2-[(4-chloro-2-fluorophenyl)methoxy]-7-({3-[(2S)-2-methoxypropyl]-6-[5-(trifluoromethyl)-4H-1,2,4-triazol-3-yl]-3H-imidazo[4,5-c]pyridin-2-yl}methyl)-3-(trifluoromethyl)-5,6,7,8-tetrahydro-1,7-naphthyridine], the concentration giving a half-maximal response (EC50) was in the range of 1 to 300 nM.

Take `Cc1cc2c(nc1OCc1c(F)cc(Cl)cc1F)CN(Cc1nc3cc(-c4nnc(C#N)[nH]4)ncc3n1C[C@@H]1CCO1)CC2` [Compound 40, 5-[2-({2-[(4-chloro-2,6-difluorophenyl)methoxy]-3-methyl-5,6,7,8-tetrahydro-1,7-naphthyridin-7-yl}methyl)-3-{[(2S)-oxetan-2-yl]methyl}-3H-imidazo[4,5-c]pyridin-6-yl]-4H-1,2,4-triazole-3-carbonitrile]: the concentration giving a half-maximal response (EC50) was under 1 nM.

`O=C(NCC(F)(F)F)c1cc2nc(CN3CCc4cc(C(F)(F)F)c(OCc5ccc(Cl)cc5F)nc4C3)n(C[C@@H]3CCO3)c2cn1` [Compound 23, 2-({2-[(4-chloro-2-fluorophenyl)methoxy]-3-(trifluoromethyl)-5,6,7,8-tetrahydro-1,7-naphthyridin-7-yl}methyl)-3-{[(2S)-oxetan-2-yl]methyl}-N-(2,2,2-trifluoroethyl)-3H-imidazo[4,5-c]pyridine-6-carboxamide] had a concentration for a half-maximal effect (EC50) of 1 to 300 nM.

`Fc1cc(Cl)ccc1COc1nc2c(cc1C(F)(F)F)CCN(Cc1nc3cc(-c4nnn[nH]4)cnc3n1C[C@@H]1CCO1)C2` [Compound 15, 2-[(4-chloro-2-fluorophenyl)methoxy]-7-[(3-{[(2S)-oxetan-2-yl]methyl}-6-(1H-1,2,3,4-tetrazol-5-yl)-3H-imidazo[4,5-b]pyridin-2-yl)methyl]-3-(trifluoromethyl)-5,6,7,8-tetrahydro-1,7-naphthyridine] yielded an EC50 of under 1 nM.

In the case of `Fc1cc(Cl)cc(F)c1COc1nc2c(cc1C(F)(F)F)CCN(Cc1nc3cc(-c4nnc(C(F)(F)F)[nH]4)nnc3n1C[C@@H]1CCO1)C2` [Compound 39, 2-[(4-chloro-2,6-difluorophenyl)methoxy]-7-[(7-{[(2S)-oxetan-2-yl]methyl}-3-[5-(trifluoromethyl)-4H-1,2,4-triazol-3-yl]-7H-imidazo[4,5-c]pyridazin-6-yl)methyl]-3-(trifluoromethyl)-5,6,7,8-tetrahydro-1,7-naphthyridine], the EC50 was under 1 nM.

Molecule `FC(F)c1ccc(COc2nc3c(cc2C(F)(F)F)CCN(Cc2nc4cc(-c5nnc(C(F)(F)F)[nH]5)ncc4n2C[C@@H]2CCO2)C3)cc1` [Compound 73, 2-{[4-(difluoromethyl)phenyl]methoxy}-7-[(3-{[(2S)-oxetan-2-yl]methyl}-6-[5-(trifluoromethyl)-4H-1,2,4-triazol-3-yl]-3H-imidazo[4,5-c]pyridin-2-yl)methyl]-3-(trifluoromethyl)-5,6,7,8-tetrahydro-1,7-naphthyridine] gave a 50% effective concentration (EC50) of under 1 nM.

As to `Fc1cc(Cl)ccc1CNc1nc2c(cc1C(F)(F)F)CCN(Cc1nc3cc(-c4nnc(C(F)(F)F)[nH]4)ncc3n1C[C@@H]1CCO1)C2` [Compound 109, N-[(4-chloro-2-fluorophenyl)methyl]-7-[(3-{1[(2S)-oxetan-2-yl]methyl}-6-[5-(trifluoromethyl)-4H-1,2,4-triazol-3-yl]-3H-imidazo[4,5-c]pyridin-2-yl)methyl]-3-(trifluoromethyl)-5,6,7,8-tetrahydro-1,7-naphthyridin-2-amine], the EC50 is under 1 nM.

In the case of `Fc1cc(Cl)ccc1COc1nc2c(cc1C(F)(F)F)CCN(Cc1nc3cc(-c4nnc(C(F)(F)F)[nH]4)ncc3n1C[C@H]1CCOC1)C2` [Compound 76, 2-[(4-chloro-2-fluorophenyl)methoxy]-7-[(3-{[(3R)-oxolan-3-yl]methyl}-6-[5-(trifluoromethyl)-4H-1,2,4-triazol-3-yl]-3H-imidazo[4,5-c]pyridin-2-yl)methyl]-3-(trifluoromethyl)-5,6,7,8-tetrahydro-1,7-naphthyridine], the EC50 lay in the range of 1 to 300 nM.

In the case of `Cc1cc2c(nc1OCc1c(F)cc(Cl)cc1F)CN(Cc1nc3cc(-c4noc(=O)[nH]4)ncc3n1C[C@@H]1CCO1)CC2` [Compound 34, 3-[2-({2-[(4-chloro-2,6-difluorophenyl)methoxy]-3-methyl-5,6,7,8-tetrahydro-1,7-naphthyridin-7-yl}methyl)-3-{[(2S)-oxetan-2-yl]methyl}-3H-imidazo[4,5-c]pyridin-6-yl]-4,5-dihydro-1,2,4-oxadiazol-5-one], the concentration for a half-maximal effect (EC50) is under 1 nM.

For the molecule `Cc1nnc(-c2cc3nc(CN4CCc5cc(C(F)(F)F)c(OCc6c(F)cc(Cl)cc6F)nc5C4)n(C[C@@H]4CCO4)c3cn2)[nH]1` [Compound 63, 2-[(4-chloro-2,6-difluorophenyl)methoxy]-7-{[6-(5-methyl-4H-1,2,4-triazol-3-yl)-3-{[(2S)-oxetan-2-yl]methyl}-3H-imidazo[4,5-c]pyridin-2-yl]methyl}-3-(trifluoromethyl)-5,6,7,8-tetrahydro-1,7-naphthyridine], the EC50 was under 1 nM.

The molecule `Fc1cc(Cl)ccc1COc1nc2c(cc1Cl)CCN(Cc1nc3cc(-c4nnc(C(F)(F)F)[nH]4)nnc3n1C[C@@H]1CCO1)C2` [Compound 7, 3-chloro-2-[(4-chloro-2-fluorophenyl)methoxy]-7-[(7-{[(2S)-oxetan-2-yl]methyl}-3-[5-(trifluoromethyl)-4H-1,2,4-triazol-3-yl]-7H-imidazo[4,5-c]pyridazin-6-yl)methyl]-5,6,7,8-tetrahydro-1,7-naphthyridine] showed a concentration giving a half-maximal response (EC50) of under 1 nM.

As to `Fc1cc(Cl)ccc1COc1nc2cc(Cc3nc4cc(-c5nnc(C(F)(F)F)[nH]5)ncc4n3C[C@@H]3CCO3)ccc2cc1C(F)(F)F` [Compound 98, 2-[(4-chloro-2-fluorophenyl)methoxy]-7-[(3-{[(2S)-oxetan-2-yl]methyl}-6-[5-(trifluoromethyl)-4H-1,2,4-triazol-3-yl]-3H-imidazo[4,5-c]pyridin-2-yl)methyl]-3-(trifluoromethyl)quinoline], the EC50 was under 1 nM.

Regarding `CSc1nnc(-c2ccc3c(c2)nc(CN2CCc4cc(C(F)(F)F)c(OCc5ccc(Cl)cc5F)nc4C2)n3C[C@@H]2CCO2)[nH]1` [Compound 86, 2-[(4-chloro-2-fluorophenyl)methoxy]-7-({5-[5-(methylsulfanyl)-4H-1,2,4-triazol-3-yl]-1-{[(2S)-oxetan-2-yl]methyl}-1H-1,3-benzodiazol-2-yl}methyl)-3-(trifluoromethyl)-5,6,7,8-tetrahydro-1,7-naphthyridine], the EC50 was under 1 nM.

The molecule `Cc1nnc(-c2cnc3c(c2)nc(CN2CCc4cc(C(F)(F)F)c(OCc5ccc(Cl)cc5F)nc4C2)n3C[C@@H]2CCO2)[nH]1` [Compound 67, 2-[(4-chloro-2-fluorophenyl)methoxy]-7-{[6-(5-methyl-4H-1,2,4-triazol-3-yl)-3-{[(2S)-oxetan-2-yl]methyl}-3H-imidazo[4,5-b]pyridin-2-yl]methyl}-3-(trifluoromethyl)-5,6,7,8-tetrahydro-1,7-naphthyridine] had an EC50 of 1 to 300 nM.

With `O=c1[nH]c(-c2ccc3c(n2)nc(CN2CCc4cc(C(F)(F)F)c(OCc5ccc(Cl)cc5F)nc4C2)n3C[C@@H]2CCO2)no1` [Compound 49, 3-[2-({2-[(4-chloro-2-fluorophenyl)methoxy]-3-(trifluoromethyl)-5,6,7,8-tetrahydro-1,7-naphthyridin-7-yl}methyl)-1-{[(2S)-oxetan-2-yl]methyl}-11H-imidazo[4,5-b]pyridin-5-yl]-4,5-dihydro-1,2,4-oxadiazol-5-one], the EC50 is under 1 nM.

Regarding `N#Cc1nnc(-c2cc3nc(CN4CCc5cc(C(F)(F)F)c(OCc6ccc(Cl)cc6F)nc5C4)n(C[C@@H]4CCO4)c3nn2)[nH]1` [Compound 42, 5-[6-({2-[(4-chloro-2-fluorophenyl)methoxy]-3-(trifluoromethyl)-5,6,7,8-tetrahydro-1,7-naphthyridin-7-yl}methyl)-7-{1[(2S)-oxetan-2-yl]methyl}-7H-imidazo[4,5-c]pyridazin-3-yl]-4H-1,2,4-triazole-3-carbonitrile], the EC50 is under 1 nM.
